In patent publication US12036237B2, “Bromide source for use in treating autism spectral disorder” (INSERM (INSTITUT NATIONAL DE LA SANTE ET DE LA RECHERCHE …, priority 2016, dated 2024):
Entries after “also recorded” stand apart in the source; their conditions may differ.

What was measured:
[1] = tested on: Oprm1−/− mice; assay: Novelty-suppressed feeding test
[2] = tested on: Oprm1−/− mice; assay: Direct social interaction test; conditions: Oprm1−/− mice, bumetanide 0.5 mg/kg i.p. daily vs saline
[3] = tested on: Oprm1−/− mice; assay: Three-chamber social novelty preference test; conditions: bumetanide 0.5 mg/kg i.p. daily vs saline
[4] = tested on: Oprm1−/− mice; assay: Y-maze exploration; conditions: bumetanide 0.5 mg/kg i.p. daily; for rate of same arm returns (cognitive stereotypies): Oprm1−/− mice
[5] = tested on: Oprm1−/− mice; assay: Motor stereotypies scoring; conditions: bumetanide 0.5 mg/kg i.p. daily
[6] = literature statement (Romermann et al, 2017); cited from earlier work
[7] = tested on: Oprm1−/− mice; assay: Marble burying test; conditions: bumetanide 0.5 mg/kg i.p. daily

CCCCNc1cc(C(=O)O)cc(S(N)(=O)=O)c1Oc1ccccc1 [bumetanide, Bumetanide]
food intake back in the home cage ([1]; Oprm1 line, bumetanide 0.5 mg/kg i.p. daily): did not modify significantly
feeding latency ([1]; Oprm1−/− mice, bumetanide 0.5 mg/kg i.p. daily): did not modify significantly
behavioural signs of anxiety (overall) ([1]; Oprm1−/− mice, marble burying and novelty-suppressed feeding, bumetanide 0.5 mg/kg): did not show effects
number of and time spent in grooming episodes [2]: only effective in reducing the number of grooming episodes
number of grooming episodes following a social contact [2]: only effective in reducing the number of grooming episodes
number of nose contacts [2]: no significant effect
number of, time spent in and duration of paw contacts [2]: no significant effect
social interaction (overall) [2]: only partially restored social interaction
time spent in and duration of nose contacts [2]: increased, but failed to completely rescue
time spent in social contact [2]: increased, but failed to completely rescue
number of and time spent in grooming episodes ([2]; listed as Bumetanide): normalized
number of grooming episodes following a social contact ([2]; listed as Bumetanide): normalized
difference (mouse over toy) in number of nose contacts [3]: restored the difference; also recorded: increased
difference (preference for the mouse over the toy) in time spent in compartments [3]: restored the difference; also recorded: successfully restored
duration of close contacts with the living mouse [3]: unable to reverse the deficit; also recorded: failed to restore
time spent in close contacts with the living mouse [3]: unable to reverse the deficit; also recorded: absence of effect
rate of same arm returns (cognitive stereotypies) [4]: reduced
rate of same arm returns (cognitive stereotypies) ([4]; listed as Bumetanide): reduced cognitive stereotypies; also recorded: similarly reduced
rates of spontaneous alternation and alternate arm returns ([4]; all animals): did not modify
circling episodes ([5]; Oprm1−/− mice): efficiently suppressed
stereotypic behaviour / motor stereotypies (overall) ([5]; Oprm1−/− mice): efficiently relieved stereotypic behaviour
stereotypic shakes ([5]; Oprm1−/− mice): efficiently suppressed
stereotypic behaviour / motor stereotypies (overall) ([5]; Oprm1−/− mice, listed as Bumetanide): suppressed motor stereotypies
duration of burying episodes ([5]; all mice): no significant effect
number of and time spent in burying episodes ([5]; all mice): increased
number of rearing and grooming episodes ([5]; mutant or wild-type): did not change
ability to cross the blood brain barrier [6]: inability; also recorded: low ability to cross the blood brain barrier
number of marbles buried [7]: did not significantly modify
